From PMC2936419, “Engineering of N. benthamiana L. plants for production of N-acetylgalactosamine-glycosylated proteins - towards development of a plant-based platform for production of protein therapeutics with mucin type O-glycosylation” (BMC Biotechnology, 2010)

Target: T1, human GalNAc-T2 (Homo sapiens, UniProt Q10471)
T1 construct: gene GALNT2; full coding region, untagged (pH7WG2:GNT2), stably expressed in Nicotiana benthamiana; microsomal fraction; ~65 kDa
Assay: GalNAc transfer to hCG-beta peptide; RP-HPLC, MALDI-TOF MS, radioactive assay
Type: biochemical
Conditions: donor with acceptor hCG-beta peptide 113-136 (500 ug in 100 ul); 10 mM MnCl2, 25 mM Tris HCl pH 7.4, 0.25% Triton X-100, 37 C; microsomes; control-plant microsomes as negative control; also 3H-labelle

T1 sequence (Q10471 whole entry): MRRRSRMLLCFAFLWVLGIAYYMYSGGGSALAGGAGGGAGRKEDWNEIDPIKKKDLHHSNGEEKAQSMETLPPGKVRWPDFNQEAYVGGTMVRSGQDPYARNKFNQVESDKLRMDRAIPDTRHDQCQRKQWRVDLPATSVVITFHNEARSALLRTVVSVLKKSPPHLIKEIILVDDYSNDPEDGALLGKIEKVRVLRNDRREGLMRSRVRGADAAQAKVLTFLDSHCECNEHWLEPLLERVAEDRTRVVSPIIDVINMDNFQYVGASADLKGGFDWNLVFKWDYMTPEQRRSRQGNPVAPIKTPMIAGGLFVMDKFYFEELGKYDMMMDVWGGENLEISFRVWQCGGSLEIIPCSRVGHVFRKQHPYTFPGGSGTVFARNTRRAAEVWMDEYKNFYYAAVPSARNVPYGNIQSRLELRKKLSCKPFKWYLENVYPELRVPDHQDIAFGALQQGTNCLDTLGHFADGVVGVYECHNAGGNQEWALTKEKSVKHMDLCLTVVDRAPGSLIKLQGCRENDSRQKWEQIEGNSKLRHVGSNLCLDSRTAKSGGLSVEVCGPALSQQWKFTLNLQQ

In the case of `CC(=O)N[C@H]1[C@@H](OP(=O)(O)OP(=O)(O)OC[C@H]2O[C@@H](n3ccc(=O)[nH]c3=O)[C@H](O)[C@@H]2O)O[C@H](CO)[C@H](O)[C@@H]1O` [UDP-GalNAc], the “GalNAc transfer to hCG-beta peptide; RP-HPLC, MALDI-TOF MS, radioactive assay” value is reported as “plant microsomal fraction as an enzyme source, UDP-GalNAc as the donor”.
